Columns and labels:
Format in all cases: in vivo
[1] = system: ATCC 75295 rice line; assay: Field plot test with AHAS-inhibiting herbicides, ATCC 75295
Experimental: The resistance of these plants to several other AHAS-inhibiting herbicides was also tested. Nine-foot-long field plots were planted with seven rows of rice per plot. The test included nine check rice varieties, and the ATCC 75295 rice line. A shielded spray boom was used to apply herbicide, spraying six of the seven rows in each plot. The four herbicides used were Pursuit (imazethapyr: (±)-2-[4,5-dihydro-4-methyl-4-(1-methylethyl)-5-oxo-1H-imidazol-2-yl]-5-ethyl-3-pyridinecarboxylic acid); Scepter (imazaquin: 2-[4,5-dihydro-4-methyl-4-(1-methylethyl)-5-oxo-1H-imidazol-2-yl]-3-quinolinecarboxylic acid); Accent (nicosulfuron: 2-(((((4,6-dimethoxypyrimidin-2-yl)aminocarbonyl)) aminosulfonyl))-N,N-dimethyl-3-pyridinecarboxamide); and Beacon (primisulfuron: 3-[4,6-bis(difluoromethoxy)-pyrimidin-2-yl]-1-(2-methoxycarbonylphenylsulfonyl)urea). The herbicides were applied to two replicate plots for each herbicide when the rice was at the three-leaf stage of maturity. Two replicate plots of each check variety and of the resistant line were left unsprayed as controls. The Accent treatment used 0.67 ounce of product (0.50 ounce active ingredient) per acre, with 0.25% nonionic surfactant. The Pursuit treatment used four ounces of product (1.00 ounce active ingredient) per acre, with 0.25% nonionic surfactant. The Scepter treatment used one pint of product (3.00 ounces active ingredient) per acre, with 0.25% nonionic surfactant. The Beacon treatment used 0.76 ounce of product (0.57 ounce active ingredient) per acre, with 0.25% nonionic surfactant. […] A similar test with the same rice varieties and the ATCC 75295 line was conducted at the five-leaf stage of development (i.e., plants fifteen days older than in the test described above), using Accent and Pursuit at the rates given above. […] The ATCC 75295 line was resistant only when herbicide was applied post-emergence.

[2] = system: progeny of the mutant rice plant (ATCC 97523); assay: Subsequent greenhouse and field testing of progeny of the surviving plant; settings: herbicides applied either pre-emergence or post-emergence
From the text: (Imazamox is sold by American Cyanamid under the trade name Raptor, and has as active ingredient (+)-5-methoxymethyl-2-(4-isopropyl-4-methyl-5-oxo-2-imidazolin-2-yl) nicotinic acid. Imazameth is sold by American Cyanamid under the trade name Cadre, and has as active ingredient (±)-2-[4,5-dihydro-4-methyl-4-(1-methyl-ethyl)-5-oxo-1H-imidazol-2-yl]- 5-methyl-3-pyridinecarboxylicacid;alternatechemicalname (±)-2-(4-isopropyl-4-methyl-5-oxo-2-imidazolin-2-yl)-5-methylnicotinic acid). Imazapyr is sold by American Cyanamid under the trade name Arsenal, and has active ingredient 2-[4,5-dihydro-4-methyl-4-(1-methylethyl)-5-oxo-1H-imidazol-2-yl]-3-pyridinecarboxylic acid) This line is resistant to herbicides applied either pre-emergence or post-emergence.

[3] = system: mutagenised rice seedlings of ten rice varieties; assay: Field screen of mutagenised rice seedlings, all other plants; settings: 2X treatment: nicosulfuron 0.063 lb a.i. per acre, imazethapyr 0.125 lb a.i. per acre; 0.25% non-ionic surfactant; 3-4 leaf stage; about four weeks later
From the text: The second resistance mechanism resulted from inducing mutations in seeds of each of ten rice varieties. Mutations were induced by exposure either to gamma rays or to the chemical mutagen ethyl methanesulfonate (EMS). Ten-pound lots of seed of each variety were subjected to 25 k-rad of gamma irradiation from a Cobalt-60 source at the Nuclear Science Center, Louisiana State University, Baton Rouge, La. prior to planting. An additional ten pounds of seed of each variety was divided into three equal portions; and each portion was soaked for 16 hours in either 0.1%, 0.5%, or 1% EMS immediately prior to planting. Several hundred pounds of seed were harvested from plants grown from the seeds subjected to these mutagenic treatments.
The following spring the harvested seed was planted in strips in a field planting occupying a total of about three acres. At the 3-4 leaf stage of seedling development, herbicides were applied to screen for herbicide-resistant mutants. Half of the seedlings of each variety were sprayed with a 2X treatment of nicosulfuron, and half were sprayed with a 2X treatment of imazethapyr, in both cases by a tractor-mounted sprayer. Nicosulfuron was applied at the rate of 0.063 lb active ingredient (a.i.) per acre, and imazethapyr was applied at 0.125 lb a.i. per acre. Non-ionic surfactant (0.25%) was added to each spray solution. […]

[4] = subsequent tests (data not shown)
[5] = five-leaf stage (plants fifteen days older), same rates as in the three-leaf test
[6] = three-leaf stage, per acre a.i.: Accent 0.50 ounce, Pursuit 1.00 ounce, Scepter 3.00 ounces, Beacon 0.57 ounce, 0.25% nonionic surfactant

Structure (SMILES) | Resistance of the rice line (in words) [1, 4] | Resistance of the rice line (in words) [2] | Resistance of the rice line (in words) [1, 5] | Resistance of the rice line (in words) [1, 6] | Symptoms of injury (in words) [3]
CC(C)C1(C)N=C(c2ncccc2C(=O)O)NC1=O (stereo not shown) [imazapyr, 2-[4,5-dihydro-4-methyl-4-(1-methylethyl)-5-oxo-1H-imidazol-2-yl]-3-pyridinecarboxylic acid] | exhibited resistance | resistance |  |  | 
COc1cc(OC)nc(NC(=O)NS(=O)(=O)c2ncccc2C(=O)N(C)C)n1 [nicosulfuron, 2-(((((4,6-dimethoxypyrimidin-2-yl)aminocarbonyl))aminosulfonyl))-N,N-dimethyl-3-pyridinecarboxamide] |  | resistance | excellent resistance | excellent resistance | either severely injured or dead
Cc1cnc(C2=NC(C)(C(C)C)C(=O)N2)c(C(=O)O)c1 (racemic) [imazameth, (±)-2-[4,5-dihydro-4-methyl-4-(1-methyl-ethyl)-5-oxo-1H-imidazol-2-yl]-5-methyl-3-pyridinecarboxylicacid] | exhibited resistance | resistance |  |  | 
COC(=O)c1ccccc1S(=O)(=O)NC(=O)Nc1nc(OC(F)F)cc(OC(F)F)n1 [primisulfuron, 3-[4,6-bis(difluoromethoxy)-pyrimidin-2-yl]-1-(2-methoxycarbonylphenylsulfonyl)urea] |  |  |  | lower, but still significantly greater than that of the check rice varieties | 
CC(C)C1(C)N=C(c2nc3ccccc3cc2C(=O)O)NC1=O (stereo not shown) [imazaquin, 2-[4,5-dihydro-4-methyl-4-(1-methylethyl)-5-oxo-1H-imidazol-2-yl]-3-quinolinecarboxylic acid] |  | resistance | good resistance | good resistance | 
COCc1cnc(C2=NC(C)(C(C)C)C(=O)N2)c(C(=O)O)c1 (single isomer, unassigned; (+)) [imazamox, (+)-5-methoxymethyl-2-(4-isopropyl-4-methyl-5-oxo-2-imidazolin-2-yl) nicotinic acid] |  | resistance |  |  | 

Reference: patent US5736629A, “Herbicide resistant rice” (priority 1997, dated 1998)
